According to patent US12552783B2, “Modulators of proteolysis and associated methods of use” (Arvinas Operations, Inc., priority 2018, dated 2026):
Blank lines part the entries; values can stand above or below the molecule they belong to.

Experiments:
KRas [1] = biological target: T1, KRas (Homo sapiens, UniProt P01116, G12C); assay: KRas degradation in SW1573 cells by Western blot, normalized to GAPDH (data of Table 14); format: cell-based; settings: SW1573 cells
Method: Cell Lines, Antibodies, and Reagents. NCI-H2030 (CRL-5914) and SW1573 (CRL-2170) cells were purchased from ATCC. Both cell lines are homozygous for the G12C mutation in KRas. NCI-H2030 cells were cultured in RPMI-1640 medium containing 1% penicillin-streptomycin and 10% fetal bovine serum (FBS). SW1573 cells were cultured in DMEM containing 1% penicillin-streptomycin and 10% FBS. The KRas detection antibody (Cat. No. LS-C175665) was purchased from LifeSpan Biosciences and was used at a dilution of 1:2000. GAPDH was detected using an antibody purchased from Cell Signaling Technology (Cat. No. 5174) and was diluted 1:3000. Secondary anti-mouse and anti-rabbit detection antibodies were purchased from Cell Signaling Technology (Cat. Nos. 7076 and 7074, respectively).
Compound Treatment and Western Blotting of the Data of Table 14. Either NCI-H2030 or SW1573 cells were plated in 12-well plates and allowed to adhere overnight at 37° C. in an incubator containing 5% CO2. The following day, the medium was replaced with the appropriate medium lacking FBS to induce starvation. Cells were returned to the incubator for an additional 24 hours following media exchange. […] Cells were treated with VHL-based compounds for 24 hours and all other compounds for 72 hours. Following treatment, cells were lysed in RIPA buffer (Thermo Fisher Cat. No. 89900) containing phosphatase (Thermo Fisher Cat. No. 1861277) and protease (Thermo Fisher Cat. No. 78429) inhibitor cocktails. Lysates were cleared at 13,000 rpm for 15 minutes and supernatants were assayed for total protein concentration using the Pierce BCA assay system (Thermo Fisher Cat. No. 23225). For each sample, 10 μg total protein was resolved on a 12% Bis-Tris gel and then transferred to a nitrocellulose membrane. After blocking in 3% BSA in TBST (Tris-buffered Saline with 0.1% Tween-20) for 1 hour at room temperature, membranes were probed with the primary antibody (LS Bio Cat. No. LS-C175665) overnight at 4° C. After incubation with the secondary antibody, the following day membranes were visualized using the SuperSignal™ West Femto substrate (Thermo Fisher Cat. No. 34095). The KRas signal in each lane was normalized to GAPDH and percent degradation was either estimated as less than 25% by visual inspection (C in Table 13) or quantitated relative to the DMSO control lane using BIO-RAD Image Lab 5.2.1, and all data was plotted using GraphPad PRISM 6.07.
DC50 is the half-maximal degradation concentration—i.e., the concentration at which 50% degradation is observed. DMax is the maximum degradation efficacy is achieved—i.e., the maximal degradation observed) degradation data.

KRas [2] = biological target: T1, KRas; assay: KRas degradation in NCI-H2030 cells by Western blot, normalized to GAPDH (data of Table 14); format: cell-based; set-up: host or cells: NCI-H2030; settings: for Dmax: NCI-H2030
Method in brief: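 Cells plated overnight, switched to FBS-free medium for 24 h, then treated (0.3, 1, 3 μM final; 0.1% DMSO) for 24 h if VHL-based, otherwise 72 h. RIPA lysates (10 μg protein) blotted for KRas, signal normalized to GAPDH and compared with DMSO.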

Structure (SMILES): C=CC(=O)N1CCN(c2nc(O[C@H](C)CN3CCC(OCCOCCOCCOCCOCCOc4ccc5c(c4)C(=O)N(C4CCC(=O)NC4=O)C5=O)CC3)nc3c(F)c(-c4cc(O)cc5ccccc45)c(Cl)cc23)CC1 (stereo partly drawn) [compound 430, 5-((14-((1-((2R)-2-((4-(4-acryloylpiperazin-1-yl)-6-chloro-8-fluoro-7-(3-hydroxynaphthalen-1-yl)quinazolin-2-yl)oxy)propyl)piperidin-4-yl)oxy)-3,6,9,12-tetraoxatetradecyl)oxy)-2-(2,6-dioxopiperidin-3-yl)isoindoline-1,3-dione]
- Percent Degradation at Indicated Concentration (μM) (KRas [1]; 0.1 μM): C (Percent Degradation: C ≤ 35)
- Percent Degradation at Indicated Concentration (μM) (KRas [1]; 0.3 μM): C (Percent Degradation: C ≤ 35)
- Percent Degradation at Indicated Concentration (μM) (KRas [1]; 1 μM): C (Percent Degradation: C ≤ 35)

Structure (SMILES): C=CC(=O)N1CCN(c2nc(OC3CCN(CCOCCN4CCN(CC(=O)N[C@H](C(=O)N5C[C@H](O)C[C@H]5C(=O)N[C@@H](C)c5ccc(-c6scnc6C)cc5)C(C)(C)C)CC4)CC3)nc3c(F)c(-c4cc(O)cc5ccccc45)c(Cl)cc23)CC1 [compound 475, (2S,4R)-1-((2S)-2-(2-(4-(2-(2-(4-((4-(4-acryloylpiperazin-1-yl)-6-chloro-8-fluoro-7-(3-hydroxynaphthalen-1-yl)quinazolin-2-yl)oxy)piperidin-1-yl)ethoxy)ethyl)piperazin-1-yl)acetamido)-3,3-dimethylbutanoyl)-4-hydroxy-N-((S)-1-(4-(4-methylthiazol-5-yl)phenyl)ethyl)pyrrolidine-2-carboxamide]
- Percent Degradation at Indicated Concentration (μM) (KRas [1]; 0.1 μM): C (Percent Degradation: C ≤ 35)
- Percent Degradation at Indicated Concentration (μM) (KRas [1]; 0.3 μM): C (Percent Degradation: C ≤ 35)
- Percent Degradation at Indicated Concentration (μM) (KRas [1]; 1 μM): C (Percent Degradation: C ≤ 35)

Structure (SMILES): Cc1ncsc1-c1ccc([C@H](C)NC(=O)[C@@H]2C[C@@H](O)CN2C(=O)[C@@H](NC(=O)COCCN(C)C(=O)CCNc2nc(N3CCN(C(=O)C(O)O)CC3)c3cc(Cl)c(-c4c(O)cccc4F)c(F)c3n2)C(C)(C)C)cc1 (atropisomer, axis not shown) [compound 234, (2S,4R)-1-((S)-2-(2-(2-(3-(((S)-6-chloro-4-(4-(2,2-dihydroxyacetyl)piperazin-1-yl)-8-fluoro-7-(2-fluoro-6-hydroxyphenyl)quinazolin-2-yl)amino)-N-methylpropanamido)ethoxy)acetamido)-3,3-dimethylbutanoyl)-4-hydroxy-N-((S)-1-(4-(4-methylthiazol-5-yl)phenyl)ethyl)pyrrolidine-2-carboxamide]
- Percent Degradation at Indicated Concentration (μM) (KRas [2]; H2030, 0.3 μM): C (Percent Degradation: C ≤ 35)
- Percent Degradation at Indicated Concentration (μM) (KRas [2]; H2030, 1 μM): C (Percent Degradation: C ≤ 35)
- Percent Degradation at Indicated Concentration (μM) (KRas [2]; H2030, 3 μM): C (Percent Degradation: C ≤ 35)
- Dmax (KRas [2]): ≤ 35%

Structure (SMILES): Cc1ncsc1-c1ccc([C@H](C)NC(=O)[C@@H]2C[C@@H](O)CN2C(=O)[C@@H](NC(=O)COCCOCCN(C)C(=O)CCNc2nc(N3CCN(C(=O)C(O)O)CC3)c3cc(Cl)c(-c4c(O)cccc4F)c(F)c3n2)C(C)(C)C)cc1 (atropisomer, axis not shown) [compound 237, (2S,4R)-1-((S)-2-(tert-butyl)-15-(((R)-6-chloro-4-(4-(2,2-dihydroxyacetyl)piperazin-1-yl)-8-fluoro-7-(2-fluoro-6-hydroxyphenyl)quinazolin-2-yl)amino)-12-methyl-4,13-dioxo-6,9-dioxa-3,12-diazapentadecanoyl)-4-hydroxy-N-((S)-1-(4-(4-methylthiazol-5-yl)phenyl)ethyl)pyrrolidine-2-carboxamide]
- Percent Degradation at Indicated Concentration (μM) (KRas [2]; H2030, 0.3 μM): C (Percent Degradation: C ≤ 35)
- Percent Degradation at Indicated Concentration (μM) (KRas [2]; H2030, 1 μM): C (Percent Degradation: C ≤ 35)
- Percent Degradation at Indicated Concentration (μM) (KRas [2]; H2030, 3 μM): C (Percent Degradation: C ≤ 35)
- Dmax (KRas [2]): ≤ 35%

Structure (SMILES): C=CC(=O)N1CCN(c2nc(O[C@H](C)CN3CCC(OCCOCCOCCOc4ccc5c(c4)CN(C4CCC(=O)NC4=O)C5=O)CC3)nc3c2CCN(c2cc(O)cc4ccccc24)C3)CC1 (stereo partly drawn) [compound 423, 3-(5-(2-(2-(2-((1-((R)-2-((4-(4-acryloylpiperazin-1-yl)-7-(3-hydroxynaphthalen-1-yl)-5,6,7,8-tetrahydropyrido[3,4-d]pyrimidin-2-yl)oxy)propyl)piperidin-4-yl)oxy)ethoxy)ethoxy)ethoxy)-1-oxoisoindolin-2-yl)piperidine-2,6-dione]
- Percent Degradation at Indicated Concentration (μM) (KRas [2]; H2030 cells, 0.3 μM): C (Percent Degradation: C ≤ 35)
- Percent Degradation at Indicated Concentration (μM) (KRas [2]; H2030 cells, 1 μM): C (Percent Degradation: C ≤ 35)
- Percent Degradation at Indicated Concentration (μM) (KRas [2]; H2030 cells, 3 μM): C (Percent Degradation: C ≤ 35)

The next lines start with the values.

- Percent Degradation at Indicated Concentration (μM): 0.3 (KRas [2]; H2030 cells, 0.3 μM): C (C ≤ 35)
- Percent Degradation at Indicated Concentration (μM): 1 (KRas [2]; H2030 cells, 1 μM): C (C ≤ 35)
- Percent Degradation at Indicated Concentration (μM): 3 (KRas [2]; H2030 cells, 3 μM): C (C ≤ 35)
- Dmax (KRas [2]; H2030 cells): ≤ 35%
Structure (SMILES): C=CC(=O)N1CCN(c2nc(NCCC(=O)N(C)CCOCCOc3ccc4c(c3)C(=O)N(C3CCC(=O)NC3=O)C4=O)nc3c(F)c(-c4cc(O)cc5ccccc45)c(Cl)cc23)CC1 (stereo not drawn) [compound 60, 3-((4-(4-acryloylpiperazin-1-yl)-6-chloro-8-fluoro-7-(3-hydroxynaphthalen-1-yl)quinazolin-2-yl)amino)-N-(2-(2-((2-(2,6-dioxopiperidin-3-yl)-1,3-dioxoisoindolin-5-yl)oxy)ethoxy)ethyl)-N-methylpropanamide]

- Percent Degradation at Indicated Concentration (μM) (KRas [2]; H2030, 0.3 μM): C (Percent Degradation: C ≤ 35)
- Percent Degradation at Indicated Concentration (μM) (KRas [2]; H2030, 1 μM): C (Percent Degradation: C ≤ 35)
- Percent Degradation at Indicated Concentration (μM) (KRas [2]; H2030, 3 μM): C (Percent Degradation: C ≤ 35)
- Dmax (KRas [2]): ≤ 35%
Structure (SMILES): O=C1CCC(N2C(=O)c3ccc(OCCOCC/C=C/C(=O)N4CCN(c5ncnc6c(F)c(-c7cc(O)cc8ccccc78)c(Cl)cc56)CC4)cc3C2=O)C(=O)N1 (stereo not drawn) [compound 168, (E)-5-(2-((5-(4-(6-chloro-8-fluoro-7-(3-hydroxynaphthalen-1-yl)quinazolin-4-yl)piperazin-1-yl)-5-oxopent-3-en-1-yl)oxy)ethoxy)-2-(2,6-dioxopiperidin-3-yl)isoindoline-1,3-dione]

- Percent Degradation at Indicated Concentration (μM): 0.3 (KRas [2]; H2030 cells, 0.3 μM): C (C ≤ 35)
- Percent Degradation at Indicated Concentration (μM): 1 (KRas [2]; H2030 cells, 1 μM): C (C ≤ 35)
- Percent Degradation at Indicated Concentration (μM): 3 (KRas [2]; H2030 cells, 3 μM): C (C ≤ 35)
- Dmax (KRas [2]; H2030 cells): ≤ 35%
Structure (SMILES): CCC(=O)N1CCN(c2nc(NCCC(=O)N(C)CCOc3ccc4c(c3)C(=O)N(C3CCC(=O)NC3=O)C4=O)nc3c(F)c(-c4cc(O)cc5ccccc45)c(Cl)cc23)CC1 (stereo not drawn) [compound 46, 3-((6-chloro-8-fluoro-7-(3-hydroxynaphthalen-1-yl)-4-(4-propionylpiperazin-1-yl)quinazolin-2-yl)amino)-N-(2-((2-(2,6-dioxopiperidin-3-yl)-1,3-dioxoisoindolin-5-yl)oxy)ethyl)-N-methylpropanamide]

- Percent Degradation at Indicated Concentration (μM) (KRas [2]; H2030, 0.3 μM): C (Percent Degradation: C ≤ 35)
- Percent Degradation at Indicated Concentration (μM) (KRas [2]; H2030, 1 μM): C (Percent Degradation: C ≤ 35)
- Percent Degradation at Indicated Concentration (μM) (KRas [2]; H2030, 3 μM): C (Percent Degradation: C ≤ 35)
- Dmax (KRas [2]): ≤ 35%
Structure (SMILES): C=CC(=O)N1CCN(c2nc(NCCC(=O)N(C)CCOc3ccc4c(c3)C(=O)N(C3CCC(=O)NC3=O)C4=O)nc3c(F)c(-c4cc(O)cc5ccccc45)c(Cl)cc23)CC1 (stereo not drawn) [compound 467, 3-((4-(4-acryloylpiperazin-1-yl)-6-chloro-8-fluoro-7-(3-hydroxynaphthalen-1-yl)quinazolin-2-yl)amino)-N-(2-((2-(2,6-dioxopiperidin-3-yl)-1,3-dioxoisoindolin-5-yl)oxy)ethyl)-N-methylpropanamide]
